# Test results as given in US20200352918A1, “COMPOUNDS AND METHODS FOR TREATING OR PREVENTING FIBROSIS” (priority 2019, published 2020).
# Test system: iFA model
# Test: Fibrotic marker, cytokine and repair modulator expression in the iFA model (qPCR, immunoblotting, luminex, immunofluorescence)
# Format: cell-based, human
# Description: The Milliplex human cytokine/chemokine Panel IV, human TIMP Panel 2, and human TGFβ 1,2,3 magnetic bead kits (EMD Millipore) were used per manufacturer's instructions. Prior to plating, all samples tested for human TGFβ only were activated and neutralized with 1.0 N HCl and 1.0 N NaOH, respectively. Briefly, 25 μl of undiluted or treated cell culture supernatant samples were mixed with 25 μl of magnetic beads and allowed to incubate overnight at 4° C. while shaking. After washing the plates with wash buffer in a Biotek ELx405 washer, 25 μl of biotinylated detection antibody was added and incubated for 1 hour at room temperature while shaking. 25 μl of streptavidin-phycoerythrin conjugate was then added to the reaction mixture and incubated for another 30 minutes at room temperature while shaking. Following additional washes, beads were resuspended in sheath fluid, and fluorescence was quantified using a Luminex 200 instrument. Similarly, a custom magnetic Luminex assay kit of select analytes (R&D Systems) was used per manufacturer's instructions. Cell culture supernatants were prepared with a 2-fold dilution. 50 μl of diluted sample were added to 50 μl of provided micro-particle cocktail and incubated for 2 hours at room temperature while shaking. After washing with wash buffer, 50 μl of biotin antibody cocktail was added and incubated for 1 hour at room temperature while shaking. Following additional washes, 50 μl of diluted Streptavidin-PE was then added for incubation for 30 minutes at room temperature while shaking. The plate was then washed again and the micro-particles resuspended in 100 μl wash buffer. After an additional 2-minute incubation while shaking, the data was acquired using a Luminex 200 instrument.
# In-vitro cultures of PF and cells in the iFA model were washed once with PBS and total RNA from the samples were extracted using the RNeasy Mini Kit (Qiagen) according to the manufacturer's instructions. For the lung slice cultures (LSC), tissues were snap-frozen after treatment and stored at −80° C. until RNA isolation. Lung slices were homogenized using a handheld homogenizer and passing the homogenate through a Qiashredder (Qiagen). Total RNA from the LSC and cells from the disease model were extracted using the RNeasy Mini Kit (Qiagen) according to the manufacturer's instructions. The RNA concentrations were measured on a NanoDrop ND-1000 spectrophotometer. Single-stranded cDNA was synthesized from 200 ng of total RNA using Superscript IV and random hexamer primers (Invitrogen) in a volume of 20 μl. cDNA was then used for qRT-PCR analysis. PCR reactions were performed using Taqman Gene Expression Assay mix (Applied Biosystems) according to the manufacturer's instructions.
# qRT-PCR reactions were performed using the StepOnePlus (Applied Biosystems). Relative gene expression was calculated using the 2^−ΔΔCt method, with 18S Cat. #4331182 (Invitrogen) as housekeeping gene. For the RT^2qPCR arrays, cDNA from DMSO and AA5 treated iFA and was added to the RT^2 qPCR iTaq Universal SYBR green Master Mix (Biorad). 20 μl of the experimental cocktail was added to each well of the Fibrosis PCR (Qiagen). Real-Time PCR was performed on the StepOnePlus qPCR system (Applied Biosystems) using SYBR green detection according to the manufacturer's recommendations. All data from the PCR was collected and analyzed by SA Bioscience's PCR Array Data Analysis Web Portal.
# Cells grown on coverslips were fixed in 4% paraformaldehyde (PFA) for 10 min at room temperature and washed three times with TBS buffer supplemented with 0.1% Tween 20 (TBST). Lung samples were fixed overnight in 4% PFA at room temperature, washed 3 times in PBS, dehydrated and then infiltrated and embedded with wax. Five-micron sections were collected on glass slides, deparaffinized and rehydrated. Heat-induced epitope retrieval was performed using 1 mM EDTA in a microwave. […]
structure (smiles),measurement,setting,value
Cc1c(C(=O)Nc2nc3ccccc3s2)sc2nc3cc4c(cc3cc12)OCO4 [AA5],"Secreted levels of acute-phase response cytokines IL-6, IL-8 and IFNα","AA5-prevention and AA5-resolution, luminex",increase
same,PTX3 protein,"AA5-prevention and AA5-resolution, over time",progressively increasing amounts
same,"Acute-phase signaling secondary cytokines MCP-3, VEGF, CSF3 and GRO",AA5 treated iFA model,increase
same,"Gene expression of fibrotic markers α-SMA, Collagen I, TIMP-3 and POSTN","AA5 treatment, confirmed by immunoblotting, luminex, immunofluorescence",down-regulation
same,Modulators of tissue repair PTX3 and CD163L1,within 24 hours of AA5-resolution treatment,upregulation
